Data taken from paper PMC11600510 (Journal of Chemical Information and Modeling, 2024).
pIC50: −log10 of the molar value. Entries after “also recorded” stand apart in the source; their conditions may differ.

Assays:
SARS-CoV-2 [1] = type: cell-based
E. coli WP2 uvrA strain = assay: Microbial mutagenicity assay (Ames test)
[2] = Metabolic stability in human liver microsomes; type: in vitro ADME
Text: CKP-25 was studied for its metabolic stability. In particular, the metabolic stability of a compound can be interpreted using several approaches, as it can be ranked in terms of its intrinsic clearance (CLint) and in vitro t1/2 values or based on parent structure loss during metabolic reactions[96],[97] CLin describes the maximum activity of liver (microsomal proteins or hepatocytes) toward a compound not influenced by other physiological determinants, such as hepatic blood flow and drug binding within the blood matrix and in vitro t1/2 expresses the time for 50% disappearance of the compound. Parent structure loss was our option for metabolic stability data interpretation of CKP-25. Parent structure loss is classified as very slow (<5%), slow (5–19%), moderate (20–50%), fast (50–80%) or very fast (>80%). Such categories have been defined according to set criteria, namely, high metabolism (t1/2 value of <30 min), moderate metabolism (30 min < t1/2 value of <60 min) and low metabolism (t1/2 value of >60 min).[98]−[100]
Metabolic stability was evaluated using pooled human liver microsomes at a 0.5 mg/mL concentration. […] Each test-compound was assessed at a concentration of 1 μM. […] The depletion of test compounds was then profiled, and the residual percentage compared to time zero was determined. The readouts were recorded using a Lionheart FX system from Agilent BioTek (Winooski, VT, USA).

SARS-CoV-2 [3] = type: cell-based; remark: listed apart in the source
CYP450 system = assay: Isozyme-specific CYP450 study, overall statement; type: in vitro ADME, human; conditions: 1 μM
Procedure: For this, the activity of CYP1A2, CYP2A6, CYP2B6, CYP2C9, CYP2C19, CYP2D6, and CYP3A4 was assessed after the administration of CKP-25 at 1 μM to determine (a) the oxidative (CYP-mediated) metabolic stability profile in question and (b) the enzyme metabolizing isoforms responsible (the test system consists of recombinant human CYP450 and CYP450 reductase; cytochrome b5 may also be present). Herein, no concentration-dependent effects were reported. […] No product inhibition or mechanism-based inactivation of the CYP450 isoenzymes in question was obtained. […]
Human cytochrome P450 (CYP450) isoenzymes were expressed in Baculosomes obtained from Thermo Fisher Scientific (Waltham, MA, USA). […] Compound CKP-25 was evaluated at a concentration of 1 μM according to our established standard operating procedures and protocols as described previously.[127],[128] The enzymatic activity of various CYP450 isoforms (CYP1A2, CYP2A6, CYP2B6, CYP2C9, CYP2C19, CYP2D6, and CYP3A4) was measured, considering the kinetic model for each isoform. […] Upon the addition of the fluorescent substrate, signal monitoring was performed immediately (within 2 min) using appropriate excitation and emission wavelengths, recorded by an Agilent BioTek Lionheart FX (Winooski, VT, USA). CYP450 inhibition (%) was calculated based on the reaction rates (fluorescence intensity changes per unit time). […]

SARS-CoV-2 [4] = assay: microbe, parasite or virus in culture; type: cell-based
CYP2D6 = molecular target: T1, CYP2D6 (Homo sapiens, UniProt P10635); assay: Isozyme-specific CYP450 inhibition; type: in vitro ADME; conditions: recombinant human CYP2D6 with CYP450 reductase (Baculosomes), probe fluorescent substrate (not named)
T1 construct: purchased Thermo Fisher Scientific; host or cells: Baculosomes
Procedure: (§1) For this, the activity of CYP1A2, CYP2A6, CYP2B6, CYP2C9, CYP2C19, CYP2D6, and CYP3A4 was assessed after the administration of CKP-25 at 1 μM to determine (a) the oxidative (CYP-mediated) metabolic stability profile in question and (b) the enzyme metabolizing isoforms responsible (the test system consists of recombinant human CYP450 and CYP450 reductase; cytochrome b5 may also be present). Herein, no concentration-dependent effects were reported. […] No product inhibition or mechanism-based inactivation of the CYP450 isoenzymes in question was obtained. Test-compounds with poor solubility can show artificially low CYP450 inhibition and thus, chemical entities with potential drug–drug interaction toxicities may be overlooked.
(§2) Human cytochrome P450 (CYP450) isoenzymes were expressed in Baculosomes obtained from Thermo Fisher Scientific (Waltham, MA, USA). Reagents were handled and prepared following the manufacturer’s guidelines. Compound CKP-25 was evaluated at a concentration of 1 μM according to our established standard operating procedures and protocols as described previously.[127],[128] The enzymatic activity of various CYP450 isoforms (CYP1A2, CYP2A6, CYP2B6, CYP2C9, CYP2C19, CYP2D6, and CYP3A4) was measured, considering the kinetic model for each isoform. The reactions were conducted in triplicate at 20 °C. NADP+ (10 mM in 100 mM potassium phosphate, pH 8.0) was converted to NADPH using a regeneration system containing glucose-6-phosphate (333 mM) and glucose-6-phosphate dehydrogenase (30 U/mL in 100 mM potassium phosphate, pH 8.0). Upon the addition of the fluorescent substrate, signal monitoring was performed immediately (within 2 min) using appropriate excitation and emission wavelengths, recorded by an Agilent BioTek Lionheart FX (Winooski, VT, USA). CYP450 inhibition (%) was calculated based on the reaction rates (fluorescence intensity changes per unit time). In total, n = 60 meaurements per minute were recorded over a 60 min period. [drawing 2] where X, the rate observed in the presence of a test-compound; A, the rate observed in the presence of negative (solvent, DMSO) control.

CYP2C9 = molecular target: T2, CYP2C9 (Homo sapiens, UniProt P11712); assay: Isozyme-specific CYP450 inhibition; type: in vitro ADME; conditions: recombinant human CYP2C9 with CYP450 reductase (Baculosomes), probe fluorescent substrate (not named)
T2 construct: purchased Thermo Fisher Scientific; host or cells: Baculosomes
Procedure: as §1, §2

CYP2B6 = molecular target: T3, CYP2B6 (Homo sapiens, UniProt P20813); assay: Isozyme-specific CYP450 inhibition; type: in vitro ADME; conditions: recombinant human CYP2B6 with CYP450 reductase (Baculosomes), probe fluorescent substrate (not named)
T3 construct: purchased Thermo Fisher Scientific; host or cells: Baculosomes
T3 sequence (P20813 1-491): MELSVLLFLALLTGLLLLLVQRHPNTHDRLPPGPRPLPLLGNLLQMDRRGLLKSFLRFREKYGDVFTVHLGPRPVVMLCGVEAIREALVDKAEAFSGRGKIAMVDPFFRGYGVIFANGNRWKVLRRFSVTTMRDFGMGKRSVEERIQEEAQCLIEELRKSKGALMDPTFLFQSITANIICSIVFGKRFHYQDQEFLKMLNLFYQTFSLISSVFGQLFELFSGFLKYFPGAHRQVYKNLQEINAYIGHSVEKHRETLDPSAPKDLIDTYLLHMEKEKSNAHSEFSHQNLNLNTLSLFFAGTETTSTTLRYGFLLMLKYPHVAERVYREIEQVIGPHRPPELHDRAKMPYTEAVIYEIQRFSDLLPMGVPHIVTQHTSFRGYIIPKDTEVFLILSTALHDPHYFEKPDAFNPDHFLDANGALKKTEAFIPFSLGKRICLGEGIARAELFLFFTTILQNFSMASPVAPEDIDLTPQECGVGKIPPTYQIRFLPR
Procedure: as §1, §2

[5] = molecular target: T4, Spike RBD/ACE2 (19–615) interaction (Severe acute respiratory syndrome coronavirus 2, UniProt P0DTC2); assay: cell-based; type: cell-based, SARS-CoV-2; conditions: HEK-293T, 48 h, read-out: suppression of Spike RBD/ACE2 (19–615) interaction
T4 construct: S protein RBD (aa residues 319–541) of SARS-CoV-2; expressed in transfected cells; host or cells: HEK293T

T1 sequence (P10635 whole entry): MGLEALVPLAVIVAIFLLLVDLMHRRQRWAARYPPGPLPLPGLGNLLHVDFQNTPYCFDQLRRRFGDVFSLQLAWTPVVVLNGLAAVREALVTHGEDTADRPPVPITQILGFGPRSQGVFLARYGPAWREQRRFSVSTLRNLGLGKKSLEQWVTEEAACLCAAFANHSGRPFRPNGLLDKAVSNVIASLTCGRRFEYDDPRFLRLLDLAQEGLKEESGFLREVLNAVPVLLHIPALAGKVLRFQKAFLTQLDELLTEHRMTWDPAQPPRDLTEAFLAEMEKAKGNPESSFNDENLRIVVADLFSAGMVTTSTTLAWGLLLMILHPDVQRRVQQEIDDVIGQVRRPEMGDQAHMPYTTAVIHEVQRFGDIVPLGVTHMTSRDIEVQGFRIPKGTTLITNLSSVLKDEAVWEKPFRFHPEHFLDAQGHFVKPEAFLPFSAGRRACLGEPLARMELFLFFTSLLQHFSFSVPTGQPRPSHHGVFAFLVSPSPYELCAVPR
T2 sequence (P11712 whole entry): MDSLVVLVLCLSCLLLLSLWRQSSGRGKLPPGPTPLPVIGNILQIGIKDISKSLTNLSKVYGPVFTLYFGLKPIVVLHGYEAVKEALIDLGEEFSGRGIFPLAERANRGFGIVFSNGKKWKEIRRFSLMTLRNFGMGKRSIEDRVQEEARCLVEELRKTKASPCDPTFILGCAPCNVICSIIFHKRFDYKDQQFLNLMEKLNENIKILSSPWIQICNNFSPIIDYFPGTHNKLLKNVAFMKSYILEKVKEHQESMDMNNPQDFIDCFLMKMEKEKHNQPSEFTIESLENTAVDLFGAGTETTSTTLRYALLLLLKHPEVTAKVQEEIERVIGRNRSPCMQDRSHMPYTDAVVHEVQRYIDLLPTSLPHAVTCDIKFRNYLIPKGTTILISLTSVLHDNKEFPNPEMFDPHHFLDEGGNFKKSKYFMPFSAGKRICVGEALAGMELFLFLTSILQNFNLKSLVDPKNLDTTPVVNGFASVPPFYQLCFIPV

COc1cccc2c1ncn2Cc1ccc2ccccc2c1 [CKP-25, 4-Methoxy-1-(naphthalen-2-ylmethyl)-1H-benzo[d]imidazole]
effect on viral load in the cell culture supernatant (in words) (SARS-CoV-2 [1]): reduced the viral load | mean revertants (E. coli WP2 uvrA strain; 2.5 μg/plate, +S9): 13 | mean revertants (E. coli WP2 uvrA strain; 2.5 μg/plate, –S9): 7.5 | mean revertants (E. coli WP2 uvrA strain; 25 μg/plate, +S9): 19 | mean revertants (E. coli WP2 uvrA strain; 25 μg/plate, –S9): 12.5 | mean revertants (E. coli WP2 uvrA strain; 50 μg/plate, +S9): 15 | mean revertants (E. coli WP2 uvrA strain; 50 μg/plate, –S9): 13 | mean revertants (E. coli WP2 uvrA strain; 100 μg/plate, +S9): 13 | mean revertants (E. coli WP2 uvrA strain; 100 μg/plate, –S9): 11.5 | mean revertants (E. coli WP2 uvrA strain; 200 μg/plate, +S9): 16 | mean revertants (E. coli WP2 uvrA strain; 200 μg/plate, –S9): 5.5 | mutagenic activity (in words) (E. coli WP2 uvrA strain; 12.5 to 200 μg/plate, with and without S9-mix): does not elicit mutagenic effect; also recorded: does not exhibit mutagenic activity | substrate depletion (in words) [2]: slow substrate depletion | reduction of the viral titter (TCID50) (SARS-CoV-2 [3]): approximately 90% | inhibition of the CYP450 system (in words) (CYP450 system): weak inhibitor | solubility issues in the CYP450 assay (CYP450 system): No solubility issues | effect on the cytopathic effect of SARS-CoV-2 (in words) (SARS-CoV-2 [4]): consistently reduced the cytopathic effect | pIC50 (SARS-CoV-2 [4]; Severe acute respiratory syndrome coronavirus 2, Vero C1008, 48 h, read-out: IC50, SARS-CoV-2 CPE): 5.46 | inhibition at 60 min, 1 µM (CYP2D6): 1% | inhibition at 60 min, 1 µM (CYP2C9): 11% | inhibition at 60 min, 1 µM (CYP2B6): 0% | inhibition at 25 µM [5]: 34%
